Laboratory results reported in patent US10092620B2, “Uses of cyclic peptides for treating and preventing atherosclerosis” (THE SCRIPPS RESEARCH INSTITUTE, priority 2013, dated 2018).
Non-standard residues stand in square brackets, D forms with d. Residues, ends and D or L forms follow the SMILES beside them.

Key:
[1] = plasma liver enzyme activities (ALT, AST); type: in vivo, mouse; details: oral ~25 mg/kg/day, 10 weeks, LDLr-null mice
Description: Plasma liver enzyme activities: At the time of harvest (10 week), blood (˜0.5 mL) was collected after an overnight fast (14-16 h) by cardiac puncture into EDTA anti-coagulant coated tubes, and centrifuged at 4° C. for 10 min×5000 rpm. Plasma samples were stored at −80° C. until analysis. Plasma alanine aminotransferase (ALT) and aspartate aminotransferase (AST) concentrations were measured using Infinity ALT (GPT) and AST (GOT) liquid stable reagents, respectively, which is a colorimetric kinetic assay (Thermo Scientific). Assays were performed in accordance to the manufacturer's recommendations, adjusting the reagent volumes (20 μL plasma+200 μL reagent, 0.69-cm light pathlength of the solution in the well) for analysis of samples in 96-well flat bottom microplate format.

[2] = mouse pharmacokinetics, i.p., LC-MS SIM; type: in vivo; details: male, BALB/cByJ, plasma, ip, BALB/c mice, i.p. 16 mg/kg
Description: Pharmacokinetics: The TSRI Institutional Animal Care and Use Committee approved all experimental protocols involving live animals. Male mice (20 g) on a BALB/cByJ background were obtained from the Rodent Breeding Colony of the Department of Animal Resources at TSRI, and were maintained on a chow diet. The cyclic peptide c[wLwReQeR], 1, was dissolved in PBS containing 1% sucrose, and sterile filtered through a 0.22-μm syringe filter before injection. Mice were fasted beginning 12 h before dosing, and continued the fast until after the 8-h time point blood draw was completed. Groups of three mice received a 16-mg/kg dose of the cyclic peptide via intraperitoneal injection (0.3 mL). Blood was drawn (30-60 μL) from the retro-orbital sinus into a heparinized capillary tube before dosing (0 min) and at different intervals from 30 min to 8 h after dosing. Plasma was isolated immediately from the whole blood by centrifugation at 5000 rpm for 10 min at 4° C. […] The resultant supernatant was analyzed by using LC-MS SIM as described below.
LC-MS SIM quantitation of peptide concentration: Cyclic peptide concentrations were quantified by using reverse-phase HPLC coupled with mass spectrometry. […] For quantitative calibration, standard curves were established using mouse EDTA-anticoagulated plasma spiked with various concentrations of the peptide. […]

[3] = body, liver and spleen weights, food and water intake; type: in vivo, mouse; details: oral ~25 mg/kg/day, 10 weeks, LDLr-null mice
Description: Body weight was measured weekly. Mice were weighed prior to fasting. Liver and spleen weights were determined at the end of treatment.

HDL in human plasma = assay: pre-beta HDL ELISA assay: remodeling HDL in human plasma in vitro; type: biochemical; details: pre-beta HDL ELISA
Description: First, various cyclic peptides, including the majority of compounds shown in FIG. 2, were assessed for activities for remodeling HDL in human plasma in vitro. Unlike western blot which was used to generate data shown in FIG. 2, here a pre-beta HDL ELISA assay was used to measure pre-beta HDL levels. Results from the assay are shown in Table 1, which lists the peptides in the order of their activities in remodeling HDL.

## CC(C)C[C@@H]1NC(=O)[C@@H](Cc2c[nH]c3ccccc23)NC(=O)[C@H](CCCNC(=N)N)NC(=O)[C@@H](CCC(=O)O)NC(=O)[C@H](CCC(N)=O)NC(=O)[C@@H](CCC(=O)O)NC(=O)[C@H](CCCNC(=N)N)NC(=O)[C@@H](Cc2c[nH]c3ccccc23)NC1=O [SEQ ID NO:1, c[wLwReQeR]] (cyclo([dW]L[dW]R[dE]Q[dE]R))
[1]
  liver enzyme ALT, difference between groups: No differences
  liver enzyme AST, difference between groups: No differences
[2]
  half-life: ~120 min
[3]
  body weight, difference between groups: No differences
  food or water intake, difference between groups: No differences
  liver weight, difference between groups: No differences
  spleen weight, difference between groups: No differences
HDL in human plasma
  Pre-beta HDL generated (normalized level): 0.88
